# Read-outs that look alike come from different tables or passages of the source.
# Experiments:
# [1] = tested on: Collectotrichum graminicola (Cg); assay: Growth inhibition assay of fungal pathogens, Cg; type: cell-based; details: 48 h
# How it was run: (§1)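 Spores diluted in 17% V8 liquid media and incubated with compound at final 50, 10, 2 ppm or 2, 0.4, 0.08 ppm (2% DMSO). OD600 plus visual ratings at 24 and 48 hours, blank-subtracted; percent growth inhibition from 48 h readings relative to 2% DMSO control.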
# [2] = tested on: Diplodia maydis (Dm); assay: Growth inhibition assay of fungal pathogens, Dm; type: cell-based; details: Stenocarpella maydis, 48 h
# How it was run: as §1
# [3] = tested on: C. parapsilosis; assay: Antifungal Activity Assay (broth microtiter MIC), C. parapsilosis; type: cell-based, Candida parapsilosis; details: Lodderomyces parapsilosis, ATCC22019, 48 h
# How it was run: (§2)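 Broth microdilution per CLSI M27-A3 in RPMI 1640+MOPS, inoculum 2.5×10^3 CFU/mL final from overnight Sabouraud dextrose agar cultures at 35° C. Compounds diluted from DMSO stock to 128 μg/mL in water. MIC read visually versus growth control at 48 h.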
# [4] = tested on: Phytophthora capsici (Pc); assay: Growth inhibition assay of fungal pathogens, Pc; type: cell-based; details: 48 h
# How it was run: as §1
# [5] = tested on: Septoria tritici (St); assay: Growth inhibition assay of fungal pathogens, St; type: cell-based; details: Zymoseptoria tritici, 48 h
# How it was run: as §1
# [6] = tested on: Rhizoctonia solani (Rs); assay: Growth inhibition assay of fungal pathogens, Rs; type: cell-based; details: 48 h
# [7] = tested on: Fusarium moniliforme (Fm); assay: Growth inhibition assay of fungal pathogens, Fm; type: cell-based; details: for IC90: Fusarium verticillioides, 48 h, read-out: Concentration at 90% Inhibition Fm
# How it was run: as §1
# [8] = target: human (hACC2) (Homo sapiens, UniProt O00763); assay: In vitro ACC inhibition assay (ADP-Glo), hACC2; type: biochemical; details: 5 nM ACC2, 20 μM ATP, 20 μM acetyl-CoA
# human (hACC2), sequence (O00763 whole entry): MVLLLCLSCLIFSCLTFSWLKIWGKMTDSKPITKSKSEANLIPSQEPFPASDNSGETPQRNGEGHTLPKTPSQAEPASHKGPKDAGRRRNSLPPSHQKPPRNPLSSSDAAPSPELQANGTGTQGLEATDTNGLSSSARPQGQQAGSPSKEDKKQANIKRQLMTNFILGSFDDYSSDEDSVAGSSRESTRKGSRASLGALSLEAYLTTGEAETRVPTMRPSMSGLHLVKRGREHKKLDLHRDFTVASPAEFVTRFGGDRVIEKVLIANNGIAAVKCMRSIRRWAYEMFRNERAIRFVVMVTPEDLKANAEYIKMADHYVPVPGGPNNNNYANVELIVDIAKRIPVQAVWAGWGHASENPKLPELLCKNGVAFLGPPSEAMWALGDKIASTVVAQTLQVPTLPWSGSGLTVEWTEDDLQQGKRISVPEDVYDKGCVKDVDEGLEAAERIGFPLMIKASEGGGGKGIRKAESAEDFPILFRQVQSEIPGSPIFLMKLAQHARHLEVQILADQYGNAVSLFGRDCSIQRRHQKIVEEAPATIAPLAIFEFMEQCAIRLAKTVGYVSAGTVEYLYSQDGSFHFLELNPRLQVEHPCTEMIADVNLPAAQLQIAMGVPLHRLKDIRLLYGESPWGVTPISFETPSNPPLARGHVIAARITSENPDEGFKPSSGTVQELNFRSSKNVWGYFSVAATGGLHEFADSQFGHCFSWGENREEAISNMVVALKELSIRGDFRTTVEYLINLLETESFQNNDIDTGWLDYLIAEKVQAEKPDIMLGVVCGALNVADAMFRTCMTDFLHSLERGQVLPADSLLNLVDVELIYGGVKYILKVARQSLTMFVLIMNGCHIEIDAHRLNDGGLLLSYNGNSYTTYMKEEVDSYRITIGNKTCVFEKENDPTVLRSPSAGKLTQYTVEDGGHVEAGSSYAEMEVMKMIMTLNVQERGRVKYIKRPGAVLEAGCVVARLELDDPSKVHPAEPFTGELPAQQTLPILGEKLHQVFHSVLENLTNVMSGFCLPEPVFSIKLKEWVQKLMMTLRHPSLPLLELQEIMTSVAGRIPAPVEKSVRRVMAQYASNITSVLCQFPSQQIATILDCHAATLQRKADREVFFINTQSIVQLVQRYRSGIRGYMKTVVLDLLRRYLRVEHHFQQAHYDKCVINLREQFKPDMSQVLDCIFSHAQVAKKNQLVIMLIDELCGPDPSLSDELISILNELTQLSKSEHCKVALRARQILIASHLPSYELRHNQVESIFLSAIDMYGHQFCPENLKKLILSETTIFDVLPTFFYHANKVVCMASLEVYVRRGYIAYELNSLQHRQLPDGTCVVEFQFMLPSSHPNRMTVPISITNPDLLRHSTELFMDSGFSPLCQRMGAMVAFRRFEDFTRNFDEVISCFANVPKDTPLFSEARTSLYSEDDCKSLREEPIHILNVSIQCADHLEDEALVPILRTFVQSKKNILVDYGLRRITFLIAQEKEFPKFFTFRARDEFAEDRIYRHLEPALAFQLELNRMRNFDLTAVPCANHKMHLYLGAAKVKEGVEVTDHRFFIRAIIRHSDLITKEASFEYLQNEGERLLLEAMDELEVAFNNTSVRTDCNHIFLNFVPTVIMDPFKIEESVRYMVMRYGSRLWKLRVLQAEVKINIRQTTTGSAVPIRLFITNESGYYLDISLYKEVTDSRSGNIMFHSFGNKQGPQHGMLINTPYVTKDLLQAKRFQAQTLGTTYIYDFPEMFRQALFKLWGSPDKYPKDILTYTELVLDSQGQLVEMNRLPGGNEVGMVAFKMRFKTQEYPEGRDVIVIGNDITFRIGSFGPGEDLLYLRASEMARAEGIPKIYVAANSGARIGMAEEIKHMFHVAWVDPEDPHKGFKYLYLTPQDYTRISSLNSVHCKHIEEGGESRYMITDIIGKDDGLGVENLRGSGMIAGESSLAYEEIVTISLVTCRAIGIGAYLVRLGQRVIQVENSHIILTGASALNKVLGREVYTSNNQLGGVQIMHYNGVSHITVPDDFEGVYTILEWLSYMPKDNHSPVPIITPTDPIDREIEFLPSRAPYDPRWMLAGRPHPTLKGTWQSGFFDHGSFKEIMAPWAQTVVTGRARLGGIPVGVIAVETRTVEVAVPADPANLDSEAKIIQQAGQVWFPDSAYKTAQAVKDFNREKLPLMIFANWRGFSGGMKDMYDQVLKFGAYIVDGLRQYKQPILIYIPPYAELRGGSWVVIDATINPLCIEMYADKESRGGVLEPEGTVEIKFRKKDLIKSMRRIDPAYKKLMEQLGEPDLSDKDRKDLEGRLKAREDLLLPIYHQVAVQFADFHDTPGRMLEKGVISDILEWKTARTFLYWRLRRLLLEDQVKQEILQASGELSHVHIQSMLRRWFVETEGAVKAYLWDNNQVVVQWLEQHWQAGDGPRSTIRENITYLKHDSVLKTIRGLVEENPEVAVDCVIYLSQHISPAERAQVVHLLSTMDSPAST
# Procedure: The detailed procedure is as follows. […] 10 μL ADP glo reagent was added. […] 20 μL kinase detection reagent was added.
# [9] = tested on: C. krusei; assay: Antifungal Activity Assay (broth microtiter MIC), C. krusei; type: cell-based, Candida krusei; details: Pichia kudriavzevii, ATCC6258, 48 h
# How it was run: as §2
# [10] = tested on: Fusarium virguliforme (Fv); assay: Growth inhibition assay of fungal pathogens, Fv; type: cell-based; details: 48 h
# How it was run: as §1
# [11] = tested on: C. albicans; assay: Antifungal Activity Assay (broth microtiter MIC), C. albicans; type: cell-based, Candida albicans; details: Candida albicans, ATCC90028, 48 h
# How it was run: as §2
# [12] = Fusarium moniliforme, growth inhibition at 48 hours vs 2% DMSO control
smiles,measurement,setting,value
"CNC(=O)C(C)(C)n1c(=O)c2c(C)c(-n3nccn3)sc2n(C[C@H](OC(C)C)c2cc(F)ccc2OC)c1=O [Compound I-50, (R)-2-(1-(2-(5-fluoro-2-methoxyphenyl)-2-isopropoxy-ethyl)-5-methyl-2,4-dioxo-6-(2H-1,2,3-triazol-2-yl)-1,4-dihydrothieno[2,3-d]pyrimidin-3(2H)-yl)-N,2-dimethylpropanamide]",IC90,"[1]; read-out: Concentration at 90% Inhibition Cg, Collectotrichum graminicola, growth inhibition at 48 hours vs 2% DMSO control",2 µg/mL
same,IC90,"[1]; read-out: Concentration at 90% Inhibition Cg, Collectotrichum graminicola, growth inhibition vs 2% DMSO control at 48 hours",10 µg/mL
same,IC90,"[2]; read-out: Concentration at 90% Inhibition Dm, Diplodia maydis, growth inhibition at 48 hours vs 2% DMSO control",10 µg/mL
same,IC90,"[2]; read-out: Concentration at 90% Inhibition Dm, Diplodia maydis, growth inhibition vs 2% DMSO control at 48 hours",> 50 µg/mL
same,MIC,"[3]; read-out: MIC, C. parapsilosis ATCC 22019, Table 3a, 3 replicates, MIC recorded at 48 h",2.1 to 4 µg/mL
same,MIC,"[3]; read-out: MIC, C. parapsilosis ATCC 22019, Table 3b (additional results), 3 replicates, MIC recorded at 48 h",2.01 to 4 µg/mL
same,IC90,"[4]; read-out: Concentration at 90% Inhibition Pc, Phytophthora capsici, growth inhibition at 48 hours vs 2% DMSO control",> 50 µg/mL
same,IC90,"[4]; read-out: Concentration at 90% Inhibition Pc, Phytophthora capsici, growth inhibition vs 2% DMSO control at 48 hours",> 50 µg/mL
same,IC90,"[5]; read-out: Concentration at 90% Inhibition St, Septoria tritici, growth inhibition at 48 hours vs 2% DMSO control",> 50 µg/mL
same,IC90,"[5]; read-out: Concentration at 90% Inhibition St, Septoria tritici, growth inhibition vs 2% DMSO control at 48 hours",> 50 µg/mL
same,IC90,"[6]; read-out: Concentration at 90% Inhibition Rs, Rhizoctonia solani, mycelial plugs, growth inhibition at 48 hours vs 2% DMSO control",2 µg/mL
same,IC90,"[6]; read-out: Concentration at 90% Inhibition Rs, Rhizoctonia solani, mycelial plugs, growth inhibition vs 2% DMSO control at 48 hours",10 µg/mL
same,Concentration at 90% Inhibition Fm,[7]; [12],A (compound concentration of 0.4 ppm at 90% inhibition of fungal pathogens)
same,IC90,[7],0.4 µg/mL
same,IC50,[8]; Table 2a,5 to 10 nM
same,IC50,"[8]; Table 2b, additional results",5 to 10 nM
same,MIC,"[9]; read-out: MIC, C. krusei ATCC 6258, Table 3a, 3 replicates, MIC recorded at 48 h",1.1 to 2 µg/mL
same,MIC,"[9]; read-out: MIC, C. krusei ATCC 6258, Table 3b (additional results), 3 replicates, MIC recorded at 48 h",0.25 to 1 µg/mL
same,IC90,"[10]; read-out: Concentration at 90% Inhibition Fv, Fusarium virguliforme, growth inhibition at 48 hours vs 2% DMSO control",0.4 µg/mL
same,IC90,"[10]; read-out: Concentration at 90% Inhibition Fv, Fusarium virguliforme, growth inhibition vs 2% DMSO control at 48 hours",0.4 µg/mL
same,MIC,"[11]; read-out: MIC, C. albicans ATCC 90028, Table 3a, 3 replicates, MIC recorded at 48 h",1.1 to 2 µg/mL
same,MIC,"[11]; read-out: MIC, C. albicans ATCC 90028, Table 3b (additional results), 3 replicates, MIC recorded at 48 h",1.01 to 2 µg/mL
"COc1ccc(F)cc1[C@H](Cn1c(=O)n(C(C)(C)C(=O)N2CC=CC2)c(=O)c2c(C)c(-n3nccn3)sc21)OC(C)C [Compound I-51, (R)-3-(1-(2,5-dihydro-1H-pyrrol-1-yl)-2-methyl-1-oxopropan-2-yl)-1-(2-(5-fluoro-2-methoxyphenyl)-2-isopropoxyethyl)-5-methyl-6-(2H-1,2,3-triazol-2-yl)thieno[2,3-d]pyrimidine-2,4(1H,3H)-dione]",IC90,"[1]; Collectotrichum graminicola, growth inhibition at 48 hours vs 2% DMSO control, read-out: Concentration at 90% Inhibition Cg",0.08 µg/mL
same,IC90,"[1]; Collectotrichum graminicola, growth inhibition vs 2% DMSO control at 48 hours, read-out: Concentration at 90% Inhibition Cg",0.08 µg/mL
same,IC90,"[2]; Diplodia maydis, growth inhibition at 48 hours vs 2% DMSO control, read-out: Concentration at 90% Inhibition Dm",0.08 µg/mL
same,IC90,"[2]; Diplodia maydis, growth inhibition vs 2% DMSO control at 48 hours, read-out: Concentration at 90% Inhibition Dm",0.08 µg/mL
same,MIC,"[3]; Table 3a, ATCC 22019, 3 replicates, MIC recorded at 48 h, read-out: MIC, C. parapsilosis ATCC 22019",1.1 to 2 µg/mL
same,MIC,"[3]; Table 3b (additional results), ATCC 22019, 3 replicates, MIC recorded at 48 h, read-out: MIC, C. parapsilosis ATCC 22019",> 4.01 µg/mL
same,IC90,"[4]; growth inhibition at 48 hours vs 2% DMSO control, read-out: Concentration at 90% Inhibition Pc",> 50 µg/mL
same,IC90,"[4]; growth inhibition vs 2% DMSO control at 48 hours, read-out: Concentration at 90% Inhibition Pc",> 50 µg/mL
same,IC90,"[5]; Septoria tritici, growth inhibition at 48 hours vs 2% DMSO control, read-out: Concentration at 90% Inhibition St",2 µg/mL
same,IC90,"[5]; Septoria tritici, growth inhibition vs 2% DMSO control at 48 hours, read-out: Concentration at 90% Inhibition St",10 µg/mL
same,IC90,"[6]; mycelial plugs, growth inhibition at 48 hours vs 2% DMSO control, read-out: Concentration at 90% Inhibition Rs",0.4 µg/mL
same,IC90,"[6]; mycelial plugs, growth inhibition vs 2% DMSO control at 48 hours, read-out: Concentration at 90% Inhibition Rs",0.4 µg/mL
same,IC90,[7]; [12],0.08 µg/mL
same,IC90,"[7]; Fusarium moniliforme, growth inhibition vs 2% DMSO control at 48 hours",0.08 µg/mL
same,IC50,[8]; Table 2a,5 to 10 nM
same,IC50,"[8]; Table 2b, additional results",5 to 10 nM
same,MIC,"[9]; Table 3a, ATCC 6258, 3 replicates, MIC recorded at 48 h, read-out: MIC, C. krusei ATCC 6258",0.25 to 1 µg/mL
same,MIC,"[9]; Table 3b (additional results), ATCC 6258, 3 replicates, MIC recorded at 48 h, read-out: MIC, C. krusei ATCC 6258",0.25 to 1 µg/mL
same,IC90,"[10]; growth inhibition at 48 hours vs 2% DMSO control, read-out: Concentration at 90% Inhibition Fv",0.4 µg/mL
same,IC90,"[10]; growth inhibition vs 2% DMSO control at 48 hours, read-out: Concentration at 90% Inhibition Fv",0.4 µg/mL
same,MIC,"[11]; Table 3a, ATCC 90028, 3 replicates, MIC recorded at 48 h, read-out: MIC, C. albicans ATCC 90028",0.25 to 1 µg/mL
same,MIC,"[11]; Table 3b (additional results), ATCC 90028, 3 replicates, MIC recorded at 48 h, read-out: MIC, C. albicans ATCC 90028",1.01 to 2 µg/mL
